Source: PMC4097383 (Drug and alcohol dependence, 2013)

T1: human cardiac calsequestrin (CASQ2) (Homo sapiens, UniProt O14958)
T1 sequence (O14958 20-399): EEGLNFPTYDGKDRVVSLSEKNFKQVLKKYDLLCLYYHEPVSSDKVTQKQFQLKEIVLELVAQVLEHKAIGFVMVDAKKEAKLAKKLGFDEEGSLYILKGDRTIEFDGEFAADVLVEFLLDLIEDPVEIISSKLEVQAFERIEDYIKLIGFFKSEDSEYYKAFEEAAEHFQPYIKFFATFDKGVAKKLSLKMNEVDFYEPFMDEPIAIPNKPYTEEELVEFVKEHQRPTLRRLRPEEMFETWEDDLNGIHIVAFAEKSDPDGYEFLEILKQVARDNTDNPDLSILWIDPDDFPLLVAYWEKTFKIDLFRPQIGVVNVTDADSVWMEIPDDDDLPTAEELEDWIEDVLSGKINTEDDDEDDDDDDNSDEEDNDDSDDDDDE


Legend:
[1] = target: T1, human cardiac calsequestrin (CASQ2); assay: isothermal titration calorimetry; format: binding
[2] = target: T1, human cardiac calsequestrin (CASQ2); assay: equilibrium dialysis and atomic absorption spectroscopy; format: biochemical; conditions: 350 μM cocaine, 1 mg/mL CASQ2, 1 h preincubation
SEC-MALS = target: the molecule itself; assay: SEC-MALS

| Molecule | Kd [1] | % reduction in Ca2+ binding capacity at 350 μM [2] | stoichiometry N (SEC-MALS) |
| --- | --- | --- | --- |
| COC(=O)[C@H]1[C@@H](OC(=O)c2ccccc2)C[C@@H]2CC[C@H]1N2C [cocaine] | 63.5 ± 2.7 µM | ~ 50% |  |
| human cardiac calsequestrin (CASQ2) (natural protein) GLNFPTYDGKDRVVSLSEKNFKQVLKKYDLLCLYYHEPVSSDKVTQKQFQLKEIVLELVAQVLEHKAIGFVMVDAKKEAKLAKKLGFDEEGSLYILKGDRTIEFDGEFAADVLVEFLLDLIEDPVEIISSKLEVQAFERIEDYIKLIGFFKSEDSEYYKAFEEAAEHFQPYIKFFATFDKGVAKKLSLKMNEVDFYEPFMDEPIAIPNKPYTEEELVEFVKEHQRPTLRRLRPEEMFETWEDDLNGIHIVAFAEKSDPDGYEFLEILKQVARDNTDNPDLSILWIDPDDFPLLVAYWEKTFKIDLFRPQIGVVNVTDADSVWMEIPDDDDLPTAEELEDWIEDVLSGKINTEDDDEDDDDDDNSDEEDNDDSDDDDDE |  |  | 2 |
